Each structure is given as a SMILES string.

What all share (assay type): biochemical
For one test, the target named is RAC1 (Homo sapiens, UniProt P63000). In words: Nucleotide exchange kinetics (mant-GTP/mant-GDP fluorescence). Further details: Full-length RAC1 carrying a 6xHis tag in C-terminus was purified as previously described; 6xHis (C); made in house. The procedure:
Figure 2 Identification of a new RAC1 inhibitor (A) Effect of A41 and NSC23766 on ruffle formation (white arrows) induced by EGF (10 ng/mL) in NIH 3T3 cells in serum-free culture medium (CTL). Inhibitors were added at indicated concentration 1 h prior to EGF stimulation. To assess cytoskeleton organization, cells were incubated with Alexa Fluor 488 phalloidin to visualize F-actin. Results shown are representative of 3 independent experiments. Corresponding concentration-response curves have been established by counting the percentages of cells with ruffles (scale bars: 10 μm). (B) Immunoblot analysis and associated quantification of RAC-GTP level and total RAC expression in NIH 3T3 cells stimulated by EGF (10 ng/mL, 5 min) and pre-incubated or not (−) with NSC23766, A41, or A415 at 10^−5 M for 1 h (∗∗∗p < 0.001 vs. controls without EGF stimulation, ^###p < 0.001 vs. controls with EGF stimulation) (N > 3). (C) Representative surface plasmon resonance (SPR) sensograms of binding of immobilized RAC1 with increasing concentrations of A41 with or without EDTA (20 mM) (N > 3). (D) Representative in vitro nucleotide exchange catalyzed by the DH-PH of TIAM (10 nM) measured by the binding of fluorescent mant-GTP (1 μM) to RAC1 (0.5 μM, preloaded with GDP) in the presence of indicated concentrations of A41 (out of N = 6). Dotted lines correspond to the experimental curves, and continuous lines represent the fit of experimental points. (E) Kobs and Kmax were determined in each condition (N = 6). (F) Predicted binding modes of A4 to the NSC23766-binding site (left) or the GDP-binding pocket of RAC1 (right). In the NSC23766-binding site of RAC1, the compound A4 (carbon atoms in blue) makes 2 hydrogen bonds (green dotted line) with Ser71 (S71) and 10 hydrophobic interactions (pink dotted line) with Ala3 (A3), Lys5 (K5), Val36 (V36), Trp56 (W56), Tyr64 (Y64), and Leu67 (L67) leading to a docking score of −6.03 kcal/mol. The GDP molecule is shown with fine line. The P loop is shown in yellow, the switch 1 in orange, and the switch 2 in green. In the GDP-binding pocket, A4 establishes 6 hydrogen bonds with Gly15 (G15), Lys16 (K16), Cys18 (C18), and Lys116 (K116), 1 carbon hydrogen bond with Lys116, and 9 hydrophobic interactions with Cys18, Ile33 (I33), Lys116, Leu119 (L119), and Leu160 (L160), resulting in a docking score of −10.32 kcal/mol.
Figure 3 Inhibitory mechanism of A41 (A–D) RAC1 activity was monitored by the change in mant-GTP/GDP fluorescence induced by its binding to or releasing from RAC1 (A–D). GDP-bound RAC1 (0.5 μM) was incubated with TRIO (10 nM) and the indicated concentrations of mant-GTP without and with A41 (5 μM) (A–C). Mant-GDP-bound RAC1 (0.5 μM) was incubated with TRIO (10 nM) and GTP (1 μM) without and with A41 (5 μM) (D). AU: arbitrary fluorescence units. All experiments were done in triplicate. Kmax and Kmin are expressed as mean ± SEM. ∗∗p < 0.01 and ∗∗∗p < 0.001 vs. TRIO. (E) Deconvoluted mass spectra generated from crude mass spectrum analyses to evaluate RAC1 photolabeling with [N3]-A41 by LC-HRMS on native protein. (F) Representative mass spectra of both labeled and unlabeled […] peptide during LC-HRMS analysis of RAC1 photolabeling with [N3]-A41 after trypsin digestion. (G) Predicted binding mode of A41 to the GDP-binding pocket of RAC1. Compound A41 (orange) makes 4 hydrogen bonds (green dotted line) with Lys16 (K16), Cys18 (C18), and Lys116 (K116), 2 carbon hydrogen bond (light green dotted line) with Val14 (V14) and Lys116 (K116), and 7 hydrophobic interactions (pink dotted line) with Cys18 (C18), Phe28 (F28), Lys116 (K116), Ala159 (A159), and Leu160 (L160). The P loop is shown in yellow, the switch 1 in orange, and the switch 2 in green.
Full-length RAC1 carrying a 6xHis tag in C-terminus was purified as previously described.[64] Full-length RAC2, RHOG, RHOA and CDC42 were purified as previously described.[64]^,[65] […]

The next test addresses EphB3(h) (Homo sapiens, UniProt P54753). Description: Kinase Profiler.
Test [1] concerns the target PI3K (p110a(E545K)/p85a)(h) (Homo sapiens, UniProt P42336, E545K). Description: Kinase Profiler.
Protocol: The kinase profiler was performed by the company Eurofins (Discovery, Panlab and Cerep).

Sequence of PI3K (p110a(E545K)/p85a)(h) (P42336 whole entry E545K): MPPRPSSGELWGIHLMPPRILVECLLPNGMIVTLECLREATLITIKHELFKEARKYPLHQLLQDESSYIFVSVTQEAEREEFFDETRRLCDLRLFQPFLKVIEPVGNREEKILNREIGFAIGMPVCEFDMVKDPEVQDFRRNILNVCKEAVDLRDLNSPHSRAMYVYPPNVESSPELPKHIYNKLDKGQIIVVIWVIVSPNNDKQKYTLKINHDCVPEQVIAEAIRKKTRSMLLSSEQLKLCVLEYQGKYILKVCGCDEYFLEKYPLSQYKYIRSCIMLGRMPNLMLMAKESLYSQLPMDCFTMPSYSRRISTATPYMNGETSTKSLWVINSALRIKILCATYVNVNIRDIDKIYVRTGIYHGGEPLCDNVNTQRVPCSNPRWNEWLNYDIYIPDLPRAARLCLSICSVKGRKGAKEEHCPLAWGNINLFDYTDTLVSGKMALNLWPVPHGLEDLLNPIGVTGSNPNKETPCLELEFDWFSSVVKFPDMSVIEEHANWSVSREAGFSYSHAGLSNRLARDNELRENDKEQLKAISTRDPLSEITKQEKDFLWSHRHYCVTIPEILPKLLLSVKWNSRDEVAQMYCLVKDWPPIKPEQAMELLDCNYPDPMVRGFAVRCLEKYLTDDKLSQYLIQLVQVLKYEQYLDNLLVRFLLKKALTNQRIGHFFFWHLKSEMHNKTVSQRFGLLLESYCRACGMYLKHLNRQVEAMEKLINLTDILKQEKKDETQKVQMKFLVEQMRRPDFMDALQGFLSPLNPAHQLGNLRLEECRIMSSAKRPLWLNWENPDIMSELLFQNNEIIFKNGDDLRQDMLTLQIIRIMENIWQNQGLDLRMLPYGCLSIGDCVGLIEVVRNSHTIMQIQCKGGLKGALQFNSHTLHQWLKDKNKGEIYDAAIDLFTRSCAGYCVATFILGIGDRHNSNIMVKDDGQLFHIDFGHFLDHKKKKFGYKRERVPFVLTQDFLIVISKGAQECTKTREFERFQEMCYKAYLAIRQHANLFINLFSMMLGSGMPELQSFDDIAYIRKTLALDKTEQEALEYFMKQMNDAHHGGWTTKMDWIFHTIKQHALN
Sequence of PI3K (p110a(E545K)/p85a)(h) (P27986 whole entry partner): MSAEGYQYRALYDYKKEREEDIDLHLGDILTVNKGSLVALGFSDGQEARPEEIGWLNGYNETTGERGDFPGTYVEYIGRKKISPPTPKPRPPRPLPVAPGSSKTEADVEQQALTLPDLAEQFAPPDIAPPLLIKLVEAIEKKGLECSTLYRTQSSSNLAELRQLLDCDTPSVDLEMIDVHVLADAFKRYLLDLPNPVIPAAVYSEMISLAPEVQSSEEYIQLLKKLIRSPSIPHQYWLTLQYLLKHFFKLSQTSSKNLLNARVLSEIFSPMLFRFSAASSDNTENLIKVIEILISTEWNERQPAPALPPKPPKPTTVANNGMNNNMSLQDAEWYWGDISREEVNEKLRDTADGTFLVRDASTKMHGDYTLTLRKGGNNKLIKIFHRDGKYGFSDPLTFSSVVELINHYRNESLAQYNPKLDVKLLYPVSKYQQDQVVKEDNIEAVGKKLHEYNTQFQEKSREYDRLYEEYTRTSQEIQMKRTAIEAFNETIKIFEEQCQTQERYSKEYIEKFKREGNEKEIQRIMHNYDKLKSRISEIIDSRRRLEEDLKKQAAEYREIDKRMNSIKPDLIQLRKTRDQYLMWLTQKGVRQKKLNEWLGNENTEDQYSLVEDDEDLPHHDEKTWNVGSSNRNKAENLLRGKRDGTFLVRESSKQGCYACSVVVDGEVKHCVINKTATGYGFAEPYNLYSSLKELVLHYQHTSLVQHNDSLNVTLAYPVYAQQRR
Sequence of EphB3(h) (P54753 34-998): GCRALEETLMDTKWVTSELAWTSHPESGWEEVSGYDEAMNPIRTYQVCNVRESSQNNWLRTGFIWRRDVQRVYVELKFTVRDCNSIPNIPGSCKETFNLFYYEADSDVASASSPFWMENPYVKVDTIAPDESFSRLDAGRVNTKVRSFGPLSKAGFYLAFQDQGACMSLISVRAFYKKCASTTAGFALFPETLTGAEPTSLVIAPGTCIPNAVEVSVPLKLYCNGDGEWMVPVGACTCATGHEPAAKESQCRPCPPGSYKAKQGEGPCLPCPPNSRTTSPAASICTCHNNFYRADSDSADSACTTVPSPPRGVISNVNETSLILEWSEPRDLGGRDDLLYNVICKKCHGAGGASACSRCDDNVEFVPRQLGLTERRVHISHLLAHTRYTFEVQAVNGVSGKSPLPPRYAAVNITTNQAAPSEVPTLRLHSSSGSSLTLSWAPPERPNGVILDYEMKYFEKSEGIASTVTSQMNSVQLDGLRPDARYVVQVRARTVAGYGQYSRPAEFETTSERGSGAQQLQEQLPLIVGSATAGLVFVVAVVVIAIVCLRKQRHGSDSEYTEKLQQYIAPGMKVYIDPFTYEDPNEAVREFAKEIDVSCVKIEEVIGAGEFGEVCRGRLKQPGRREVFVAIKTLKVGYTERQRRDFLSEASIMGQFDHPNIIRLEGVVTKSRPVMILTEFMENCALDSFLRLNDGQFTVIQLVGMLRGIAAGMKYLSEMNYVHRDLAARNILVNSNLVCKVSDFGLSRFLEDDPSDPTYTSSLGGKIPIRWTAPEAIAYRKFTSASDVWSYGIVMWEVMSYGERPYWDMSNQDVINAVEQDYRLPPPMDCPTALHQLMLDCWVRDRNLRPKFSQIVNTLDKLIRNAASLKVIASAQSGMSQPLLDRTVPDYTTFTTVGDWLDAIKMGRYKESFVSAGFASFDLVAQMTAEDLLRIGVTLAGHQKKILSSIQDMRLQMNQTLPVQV
Protocol for EphB3(h): Blood cell counts, kinase profiler, safety screen, bacterial cytotoxicity, Ames, micronucleus assays were performed by the company Eurofins (France). The kinase profiler was performed by the company Eurofins (Discovery, Panlab and Cerep).

Take `COc1ccc(OC)c(NS(=O)(=O)c2ccc(NC(=O)CCSc3ccc(C)cc3)cc2)c1` [Compound A41]: the “Inhibition of RAC1 activity (nucleotide exchange assay)” value at RAC1 was 46%. Besides, on RAC1 (A41 5 μM, mant-GDP-bound RAC1, GTP 1 μM), the “TRIO-induced GDP dissociation” value was “no effect”. Also, the “inhibitory effect on TRIO-induced nucleotide exchange” value against RAC1 (A41 5 μM, mant-GTP 5 μM) is reported as “abolished”; against RAC1 (A41 5 μM, mant-GTP increased from 1 to 2.5 μM), “strongly decreased”. In addition, the “plateau (Kmax) of nucleotide exchange” value at RAC1 (TIAM DH-PH 10 nM, mant-GTP 1 μM, concentration-dependent) is reported as “decreased the plateau”. The “spontaneous activity of RAC1” value on RAC1 (no GEF) was “without affecting”. Besides, the results for the “Activity(%)” value (at EphB3(h); in test [1]) were 113% and 105%, respectively.

Source of the values: PMC12281424, “A Rac-specific competitive inhibitor of guanine nucleotide binding reduces metastasis in triple-negative breast cancer” (Cell Reports Medicine, 2025).
